This note sets out measurements from ChEMBL document CHEMBL1165960, “Identification of the three-dimensional pharmacophore of kappa-opioid receptor agonists” (Bioorg Med Chem, 2010).

Where only a bound is given, the exact number is not on record here.

In test [1] the target is Kappa-type opioid receptor (Homo sapiens, UniProt P41145). Description: Binding affinity to kappa opioid receptor.
Test [2] can be described thus: Selectivity ratio of Ki for mu opioid receptor to kappa opioid receptor.

Chain of Kappa-type opioid receptor (P41145 whole entry): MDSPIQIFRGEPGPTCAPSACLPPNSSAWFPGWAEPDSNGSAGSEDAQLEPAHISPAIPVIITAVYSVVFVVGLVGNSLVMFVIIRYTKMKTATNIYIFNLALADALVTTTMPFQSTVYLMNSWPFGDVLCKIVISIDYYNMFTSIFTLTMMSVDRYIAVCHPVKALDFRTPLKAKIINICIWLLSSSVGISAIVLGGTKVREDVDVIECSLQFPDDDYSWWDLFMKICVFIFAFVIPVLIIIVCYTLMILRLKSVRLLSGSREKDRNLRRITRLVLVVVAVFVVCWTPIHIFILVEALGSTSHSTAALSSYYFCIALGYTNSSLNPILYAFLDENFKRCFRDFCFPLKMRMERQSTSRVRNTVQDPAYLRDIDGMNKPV

As a reminder, the Ki is the equilibrium dissociation constant of an inhibitor or competing ligand from its target. Read a low Ki as higher affinity. In turn, `COc1ccc([C@H]2CN3C(=NC[C@@H]3C)N2CCCc2ccccc2)cc1` registered a Ki in test [1] of 39 nM.
`CCC12CCN(CC3(O)CC3)C(Cc3ccc(O)cc31)C2(C)C` (stereo unspecified) [BREMAZOCINE]: the Ratio Ki in test [2] was determined as 3.8. The same compound displayed a Ki in test [1] of 0.04 nM.
For `O=C(Nc1ccccc1)[C@H]1O[C@@]23CCC1(O)[C@@H]1Oc4c(O)ccc5c4[C@@]12CCN(CC1CC1)[C@@H]3C5` (single isomer, unassigned), the Ratio Ki in test [2] came to 1.9. In addition, the Ki in test [1] turned out to be 0.111 nM.
For `NC(=O)[C@H]1CSSC[C@@H](NC(=O)[C@@H](N)Cc2ccc(O)cc2)C(=O)N[C@@H](Cc2ccccc2)C(=O)N1`, in test [2], the Ratio Ki worked out at 0.03. In test [1], the affinity corresponds to a Ki of 38.7 nM.
`O=C(Nc1ccccc1)[C@@H]1O[C@@]23CC[C@@]1(O)[C@@H]1Oc4c(O)ccc5c4[C@@]12CCN(CC1CC1)[C@@H]3C5`: the Ratio Ki in test [2] was determined as 1.3. Moreover, the Ki in test [1] amounted to 0.152 nM.
As to `CN1c2ccccc2C(c2ccccc2F)=NCC1CNC(=O)c1ccsc1` (stereo unspecified) [TIFLUADOM], in test [2], the Ratio Ki was found to be 8.8. This compound also gave a Ki in test [1] of 0.17 nM.
In the case of `O=C(NC[C@H]1C[C@]23CCN(CC4CC4)[C@H](Cc4ccc(O)cc42)[C@]3(O)CO1)c1ccccc1`, in test [2], the Ratio Ki came out at 1. In addition, in test [1], the Ki was 0.135 nM.
Take `CN(C(=O)/C=C/c1ccco1)[C@@H]1CC[C@@]2(O)[C@H]3Cc4ccc(O)c5c4[C@@]2(CCN3CC2CC2)[C@H]1O5`: the Ratio Ki in test [2] stood at 2.6.
As for `COC(=O)[C@]12CN(C)C[C@](C(=O)OC)(C1=O)[C@@H](c1ccccn1)N(C)[C@H]2c1ccccn1`, the Ratio Ki in test [2] is > 66.7. In test [1], this compound came in with a Ki of 15 nM.
